Results from BindingDB's records for patent WO2022081807 (THE BROAD INSTITUTE, INC., 2022).

target: T1, Histone acetyltransferase KAT6A [507-778] (Human, UniProt Q92794); experiment: Kat6a Activity Assay
T1 construct: 507-778
T1 sequence (Q92794 whole entry): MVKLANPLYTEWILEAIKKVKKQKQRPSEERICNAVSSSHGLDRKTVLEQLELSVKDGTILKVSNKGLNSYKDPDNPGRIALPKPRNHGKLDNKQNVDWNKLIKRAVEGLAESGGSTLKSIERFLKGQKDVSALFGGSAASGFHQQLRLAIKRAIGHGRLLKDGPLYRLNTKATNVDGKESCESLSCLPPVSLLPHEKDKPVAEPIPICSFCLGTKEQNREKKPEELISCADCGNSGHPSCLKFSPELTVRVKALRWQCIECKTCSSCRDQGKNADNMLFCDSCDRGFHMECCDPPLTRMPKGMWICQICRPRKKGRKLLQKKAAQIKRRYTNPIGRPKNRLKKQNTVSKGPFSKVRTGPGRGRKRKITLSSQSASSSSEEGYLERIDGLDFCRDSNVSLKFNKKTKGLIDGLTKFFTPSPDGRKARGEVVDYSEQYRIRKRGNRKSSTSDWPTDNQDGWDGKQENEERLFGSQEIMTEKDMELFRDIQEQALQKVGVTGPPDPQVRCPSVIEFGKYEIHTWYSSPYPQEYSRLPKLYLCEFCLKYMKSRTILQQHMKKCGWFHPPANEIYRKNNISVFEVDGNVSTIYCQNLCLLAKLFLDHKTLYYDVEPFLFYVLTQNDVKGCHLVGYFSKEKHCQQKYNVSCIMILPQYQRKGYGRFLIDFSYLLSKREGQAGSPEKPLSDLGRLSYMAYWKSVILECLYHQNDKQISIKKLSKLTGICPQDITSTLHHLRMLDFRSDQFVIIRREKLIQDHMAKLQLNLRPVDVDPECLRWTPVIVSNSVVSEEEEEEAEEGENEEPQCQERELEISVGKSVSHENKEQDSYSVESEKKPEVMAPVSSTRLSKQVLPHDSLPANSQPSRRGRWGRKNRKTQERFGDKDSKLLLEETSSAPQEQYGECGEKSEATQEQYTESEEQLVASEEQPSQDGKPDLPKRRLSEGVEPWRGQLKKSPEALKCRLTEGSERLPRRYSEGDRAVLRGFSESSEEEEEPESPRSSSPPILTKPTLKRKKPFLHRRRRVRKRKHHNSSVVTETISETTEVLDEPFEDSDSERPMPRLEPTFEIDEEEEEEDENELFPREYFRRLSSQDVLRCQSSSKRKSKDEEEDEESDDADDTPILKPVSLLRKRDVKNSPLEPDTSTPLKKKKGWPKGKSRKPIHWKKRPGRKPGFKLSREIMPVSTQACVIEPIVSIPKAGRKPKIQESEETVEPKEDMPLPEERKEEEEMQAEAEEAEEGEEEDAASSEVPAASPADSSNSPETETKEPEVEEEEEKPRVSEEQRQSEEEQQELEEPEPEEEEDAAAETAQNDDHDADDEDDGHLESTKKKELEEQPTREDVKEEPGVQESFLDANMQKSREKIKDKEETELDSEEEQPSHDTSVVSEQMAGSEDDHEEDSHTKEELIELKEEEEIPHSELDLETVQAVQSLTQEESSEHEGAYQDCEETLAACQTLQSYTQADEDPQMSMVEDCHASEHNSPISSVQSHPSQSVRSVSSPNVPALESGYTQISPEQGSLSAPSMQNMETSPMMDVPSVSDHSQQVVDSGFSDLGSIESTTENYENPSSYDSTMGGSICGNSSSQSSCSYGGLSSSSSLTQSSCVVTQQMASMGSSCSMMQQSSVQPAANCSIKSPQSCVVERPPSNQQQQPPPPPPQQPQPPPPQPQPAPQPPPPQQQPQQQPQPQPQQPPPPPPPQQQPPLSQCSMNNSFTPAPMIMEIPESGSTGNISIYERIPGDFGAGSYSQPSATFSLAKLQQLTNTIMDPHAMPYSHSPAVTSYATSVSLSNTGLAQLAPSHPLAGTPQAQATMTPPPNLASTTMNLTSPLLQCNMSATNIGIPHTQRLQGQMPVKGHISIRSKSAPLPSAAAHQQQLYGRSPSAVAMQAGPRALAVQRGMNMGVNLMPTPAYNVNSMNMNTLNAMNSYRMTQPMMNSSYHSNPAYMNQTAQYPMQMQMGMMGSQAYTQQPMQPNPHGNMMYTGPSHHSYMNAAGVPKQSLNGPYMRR

IC50 [nM]	SMILES
310	Cc1ccc(S(=O)(=O)NC(=O)c2cc3c(F)cc(N4CCC4)cc3o2)c2ccncc12 [WO2022081807, Example 191]
18	Cc1ccc(OC(C)C)c(S(=O)(=O)NC(=O)c2cc3c(F)cc(N4CCC4)cc3o2)c1 [WO2022081807, Example 134]
27	CCOc1ccc(C(F)(F)F)cc1S(=O)(=O)NC(=O)c1cc2c(F)cc(N3CCC3)cc2o1 [WO2022081807, Example 209]
7.52	CN(C)c1ccccc1S(=O)(=O)NC(=O)c1cc2c(F)cc(N3CCC3)cc2o1 [WO2022081807, Example 11]
62	Cc1ccc2cccc(S(=O)(=O)NC(=O)c3cc4c(F)cc(N5CCC5C)cc4o3)c2n1 (stereo not drawn) [WO2022081807, Example 221]
14	Cc1ccc2cccc(S(=O)(=O)NC(=O)c3cc4c(F)cc(N5CCC5)cc4o3)c2n1 [WO2022081807, Example 130]
13	O=C(NS(=O)(=O)c1cccc2ccc(Cl)nc12)c1cc2c(F)cc(N3CC(F)C3)cc2o1 [WO2022081807, Example 154]
21	Cc1ccc(OCC2CCCC2)c(S(=O)(=O)NC(=O)c2cc3c(F)cc(N4CCC4)cc3o2)c1 [WO2022081807, Example 9]
25	CC(C)c1ccc(C(C)C)c(S(=O)(=O)NC(=O)c2cc3c(F)cc(N4CCC4)cc3o2)c1 [WO2022081807, Example 30]
24	O=C(NS(=O)(=O)c1cccc2c1OCC2)c1cc2c(F)cc(N3CCC3)cc2o1 [WO2022081807, Example 18]
21	O=C(NS(=O)(=O)c1cc(Br)cc2c1OCC2)c1cc2c(F)cc(N3CCC3)cc2o1 [WO2022081807, Example 177]
23	O=C(NS(=O)(=O)c1ccccc1OC1CC1)c1cc2c(F)cc(N3CCC3)cc2o1 [WO2022081807, Example 131]
20	COc1ccc(C)cc1S(=O)(=O)NC(=O)c1cc2c(F)cc(N3CCC3)cc2o1 [WO2022081807, Example 156]
47	C[C@H](Oc1ccccc1S(=O)(=O)NC(=O)c1cc2c(F)cc(N3CCC3)cc2o1)C(F)(F)F [WO2022081807, Example 15]
70	Cc1cccc(C(C)C)c1S(=O)(=O)NC(=O)c1cc2c(F)cc(N3CCC3)cc2o1 [WO2022081807, Example 53]
19	O=C(NS(=O)(=O)c1cc(Br)ccc1OC(F)(F)F)c1cc2c(F)cc(N3CCC3)cc2o1 [WO2022081807, Example 82]
367	CCc1cc(S(=O)(=O)NC(=O)c2cc3c(F)cc(N4CCC4)cc3o2)c(C)s1 [WO2022081807, Example 36]
11	CCOc1ccc(CC)cc1S(=O)(=O)NC(=O)c1cc2c(F)cc(N3CC(F)C3)cc2o1 [WO2022081807, Example 153]
26	COc1cccc(N2CCOCC2)c1S(=O)(=O)NC(=O)c1cc2c(F)cc(N3CCC3)cc2o1 [WO2022081807, Example 137]

IC50 [nM]	SMILES
28	O=C(NS(=O)(=O)c1cccc2c1OC(F)(F)C(F)(F)O2)c1cc2c(F)cc(N3CCC3)cc2o1 [WO2022081807, Example 140]
28	C[C@@H](Oc1ccccc1S(=O)(=O)NC(=O)c1cc2c(F)cc(N3CCC3)cc2o1)C(F)(F)F [WO2022081807, Example 14]
19	CC(Oc1ccccc1S(=O)(=O)NC(=O)c1cc2c(F)cc(N3CCC3)cc2o1)C(F)(F)F (racemic) [WO2022081807, Example 13]
12	COc1ccc(-c2cccc(F)c2)cc1S(=O)(=O)NC(=O)c1cc2c(F)cc(N3CCC3)cc2o1 [WO2022081807, Example 198]
4.15	CCOc1cccc(Oc2ccccc2)c1S(=O)(=O)NC(=O)c1cc2c(F)cc(N3CCC3)cc2o1 [WO2022081807, Example 7]
517	CCS(=O)(=O)c1nc2ccccn2c1S(=O)(=O)NC(=O)c1cc2c(F)cc(N3CC(F)C3)cc2o1 [WO2022081807, Example 167]
26	COc1ccc(C)cc1S(=O)(=O)NC(=O)c1cc2c(F)cc(N3CC(F)C3)cc2o1 [WO2022081807, Example 158]
11	CCOc1ccccc1S(=O)(=O)NC(=O)c1cc2c(F)cc(N3CC[C@@H]3C(N)=O)cc2o1 [WO2022081807, Example 169]
79	CC(C)Oc1cccc(Br)c1S(=O)(=O)NC(=O)c1cc2c(F)cc(N3CCC3)cc2o1 [WO2022081807, Example 39]
0.81	COc1ccc(N2CCCC2c2ccccc2)cc1S(=O)(=O)NC(=O)c1cc2c(F)cc(N3CCC3)cc2o1 (stereo not drawn) [WO2022081807, Example 201]
17	CCOc1ccc(Br)cc1S(=O)(=O)NC(=O)c1cc2c(F)cc(N3CCC3)cc2o1 [WO2022081807, Example 135]
27	COc1ccc(Br)cc1S(=O)(=O)NC(=O)c1cc2c(F)cc(N3CCC3)cc2o1 [WO2022081807, Example 139]
1190	CC1(C)CCN1c1cc(F)c2cc(C(=O)NS(=O)(=O)c3ccccc3-c3ccccc3)oc2c1 [WO2022081807, Example 217]
464	O=C(NS(=O)(=O)c1c(NCC(F)F)cccc1C(F)(F)F)c1cc2c(F)cc(N3CCC3)cc2o1 [WO2022081807, Example 92]
6.06	COc1ccc(C2=CCN(C(=O)OC(C)(C)C)CC2)cc1S(=O)(=O)NC(=O)c1cc2c(F)cc(N3CCC3)cc2o1 [WO2022081807, Example 197]
2290	CCOc1ccccc1S(=O)(=O)NC(=O)c1cc2c(F)cc(N3CC(C)(F)C3)cc2o1 [WO2022081807, Example 116]
8.15	COc1ccc(C(C)C)cc1S(=O)(=O)NC(=O)c1cc2c(F)cc(N3CCC3)cc2o1 [WO2022081807, Example 128]
29	CCOc1cccc(C(C)C)c1S(=O)(=O)NC(=O)c1cc2c(F)cc(N3CCC3)cc2o1 [WO2022081807, Example 23]

SMILES	IC50 [nM]
CN(C(=O)Oc1ccccc1S(=O)(=O)NC(=O)c1cc2c(F)cc(N3CCC3)cc2o1)c1ccccc1 [WO2022081807, Example 62]	196

target: Histone acetyltransferase KAT6B (Human, UniProt Q8WYB5); experiment: Kat6b Activity Assay
Experimental: In this case 50 nl DMSO were used instead of compounds. […] IC50 values were determined by regression analysis based on a 4 parameter equation (minimum, maximum, ICM, Hill; Y = Max + (Min - Max) / (1 + (X/ICso) Hill) using the Screener Software (Genedata).

Chain of Histone acetyltransferase KAT6B (Q8WYB5 whole entry): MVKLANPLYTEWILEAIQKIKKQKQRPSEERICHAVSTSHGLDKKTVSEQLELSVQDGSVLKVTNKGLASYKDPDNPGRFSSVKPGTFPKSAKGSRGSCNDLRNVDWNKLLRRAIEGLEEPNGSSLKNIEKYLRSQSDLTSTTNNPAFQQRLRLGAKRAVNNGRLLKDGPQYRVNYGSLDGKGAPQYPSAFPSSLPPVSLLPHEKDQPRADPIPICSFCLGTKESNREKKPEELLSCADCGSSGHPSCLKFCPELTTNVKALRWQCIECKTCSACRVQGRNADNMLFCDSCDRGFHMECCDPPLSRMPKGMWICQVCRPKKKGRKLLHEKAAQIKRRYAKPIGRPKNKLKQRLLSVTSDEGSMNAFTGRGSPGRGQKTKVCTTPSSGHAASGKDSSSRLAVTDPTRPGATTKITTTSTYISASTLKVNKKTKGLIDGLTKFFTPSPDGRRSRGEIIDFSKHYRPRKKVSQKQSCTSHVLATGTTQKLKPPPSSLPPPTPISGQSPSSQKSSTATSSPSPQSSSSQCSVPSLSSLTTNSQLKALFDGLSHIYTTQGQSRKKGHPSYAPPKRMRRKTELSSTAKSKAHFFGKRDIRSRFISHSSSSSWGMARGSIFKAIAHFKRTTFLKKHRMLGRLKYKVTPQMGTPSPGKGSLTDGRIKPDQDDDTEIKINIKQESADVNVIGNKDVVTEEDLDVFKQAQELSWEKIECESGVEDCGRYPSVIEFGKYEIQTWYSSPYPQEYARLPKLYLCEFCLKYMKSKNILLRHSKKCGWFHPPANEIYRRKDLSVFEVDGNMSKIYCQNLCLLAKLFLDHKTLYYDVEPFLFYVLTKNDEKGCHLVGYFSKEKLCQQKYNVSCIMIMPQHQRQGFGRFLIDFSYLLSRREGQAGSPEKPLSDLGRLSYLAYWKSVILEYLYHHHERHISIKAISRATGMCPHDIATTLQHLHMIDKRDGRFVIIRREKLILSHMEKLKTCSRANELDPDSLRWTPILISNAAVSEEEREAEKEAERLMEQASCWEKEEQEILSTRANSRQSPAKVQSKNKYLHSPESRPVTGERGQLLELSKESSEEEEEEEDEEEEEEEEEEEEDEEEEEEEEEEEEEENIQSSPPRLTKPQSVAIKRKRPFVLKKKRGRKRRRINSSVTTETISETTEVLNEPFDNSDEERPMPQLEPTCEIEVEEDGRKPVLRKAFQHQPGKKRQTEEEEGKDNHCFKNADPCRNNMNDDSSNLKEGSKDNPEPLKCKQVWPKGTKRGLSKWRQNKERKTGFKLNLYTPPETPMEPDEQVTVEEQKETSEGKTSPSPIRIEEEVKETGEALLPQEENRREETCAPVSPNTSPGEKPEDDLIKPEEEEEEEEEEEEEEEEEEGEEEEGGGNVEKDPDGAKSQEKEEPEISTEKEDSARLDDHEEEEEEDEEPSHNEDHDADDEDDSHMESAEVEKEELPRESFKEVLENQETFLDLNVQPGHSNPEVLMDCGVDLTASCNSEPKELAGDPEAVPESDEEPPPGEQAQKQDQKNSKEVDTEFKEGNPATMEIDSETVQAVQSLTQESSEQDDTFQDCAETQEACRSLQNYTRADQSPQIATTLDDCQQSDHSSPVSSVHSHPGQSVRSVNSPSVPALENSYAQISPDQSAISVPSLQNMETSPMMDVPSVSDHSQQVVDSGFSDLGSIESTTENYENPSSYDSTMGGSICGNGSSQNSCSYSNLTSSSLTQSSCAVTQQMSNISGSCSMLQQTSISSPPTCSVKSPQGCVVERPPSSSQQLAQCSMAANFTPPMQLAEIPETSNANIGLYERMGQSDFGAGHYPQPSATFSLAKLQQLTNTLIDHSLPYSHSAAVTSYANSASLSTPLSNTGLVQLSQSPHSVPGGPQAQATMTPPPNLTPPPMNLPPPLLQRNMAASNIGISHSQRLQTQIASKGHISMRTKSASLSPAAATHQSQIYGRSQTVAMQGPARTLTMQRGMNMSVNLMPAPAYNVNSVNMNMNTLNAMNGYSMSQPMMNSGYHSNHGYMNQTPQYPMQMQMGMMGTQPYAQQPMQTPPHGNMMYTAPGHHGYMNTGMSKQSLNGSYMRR

IC50 [nM]	SMILES
20	Cc1ccc2cccc(S(=O)(=O)NC(=O)c3cc4c(F)cc(N5CCC5)cc4o3)c2n1 [WO2022081807, Example 130]
20	CC(C)c1ccc(OCC2CC2)c(S(=O)(=O)NC(=O)c2cc3c(F)cc(N4CCC4)cc3o2)c1 [WO2022081807, Example 214]
13	CC(C)(C)c1ccc(OC2CCC2)c(S(=O)(=O)NC(=O)c2cc3c(F)cc(N4CCC4)cc3o2)c1 [WO2022081807, Example 228]
12	CCOc1ccc(C(C)(C)C)cc1S(=O)(=O)NC(=O)c1cc2c(F)cc(N3CC(F)C3)cc2o1 [WO2022081807, Example 113]
20	Cc1ccc2cccc(S(=O)(=O)NC(=O)c3cc4c(F)cc(N5CC(F)C5)cc4o3)c2n1 [WO2022081807, Example 152]
14	CC(C)c1cccnc1S(=O)(=O)NC(=O)c1cc2c(F)cc(N3CCC3)cc2o1 [WO2022081807, Example 79]
15	CC(C)c1ccc(OCc2ccccc2)c(S(=O)(=O)NC(=O)c2cc3c(F)cc(N4CCC4)cc3o2)c1 [WO2022081807, Example 213]
28	CC(C)Oc1ccc(C(C)(C)C)cc1S(=O)(=O)NC(=O)c1cc2c(F)cc(N3CCC3)cc2o1 [WO2022081807, Example 229]
29	CC(C)c1ccc(OCC2CC2(F)F)c(S(=O)(=O)NC(=O)c2cc3c(F)cc(N4CCC4)cc3o2)c1 (racemic) [WO2022081807, Example 231]
15	COc1ccc(C(C)C)cc1S(=O)(=O)NC(=O)c1cc2c(F)cc(N3CCC3)cc2o1 [WO2022081807, Example 128]
